{"source": "ChEMBL document CHEMBL1139771", "about": "“Anti-inflammatory property of the urinary metabolites of nobiletin in mouse” (Bioorg Med Chem Lett, 2007)", "key": {"RAW264.7 [1]": {"system": "RAW264.7", "assay": "Antiinflammatory activity in mouse RAW264.7 cells assessed as inhibition of LPS-induced nitric oxide production at 10 uM after 24 hrs", "type": "functional, cell-based"}, "RAW264.7 [2]": {"system": "RAW264.7", "assay": "Antiinflammatory activity in mouse RAW264.7 cells assessed as inhibition of LPS-induced nitric oxide production at 30 uM after 24 hrs", "type": "functional, cell-based"}, "RAW264.7 [3]": {"system": "RAW264.7", "assay": "Cytotoxicity against mouse RAW264.7 cells at 30 uM by MTT assay", "type": "cell-based", "details": "raw264.7, 30 µM"}, "RAW264.7 [4]": {"system": "RAW264.7", "assay": "Inhibition of LPS-induced iNOS protein expression in mouse RAW264.7 cells at 5 uM after 24 hrs by Western blotting", "type": "functional, cell-based"}, "RAW264.7 [5]": {"system": "RAW264.7", "assay": "Inhibition of LPS-induced iNOS protein expression in mouse RAW264.7 cells at 20 uM after 24 hrs by Western blotting", "type": "functional, cell-based"}, "RAW264.7 [6]": {"system": "RAW264.7", "assay": "Inhibition of LPS-induced COX2 protein expression in mouse RAW264.7 cells at 5 uM after 24 hrs by Western blotting", "type": "functional, cell-based"}, "RAW264.7 [7]": {"system": "RAW264.7", "assay": "Inhibition of LPS-induced COX2 protein expression in mouse RAW264.7 cells at 20 uM after 24 hrs by Western blotting", "type": "functional, cell-based"}, "RAW264.7 [8]": {"system": "RAW264.7", "assay": "Inhibition of LPS-induced iNOS gene expression in mouse RAW264.7 cells at 20 uM after 24 hrs by RT-PCR", "type": "functional, cell-based"}, "RAW264.7 [9]": {"system": "RAW264.7", "assay": "Inhibition of LPS-induced COX2 gene expression in mouse RAW264.7 cells at 20 uM after 24 hrs by RT-PCR", "type": "functional, cell-based"}}, "note": "The source made the active and inactive calls. The rule behind the calls is not given here."}
{"smiles": "COc1c(OC)c(OC)c2c(=O)cc(-c3ccc(O)c(O)c3)oc2c1OC", "values": [{"measurement": "Activity", "setting": "RAW264.7 [1]", "value": "Active"}, {"measurement": "Activity", "setting": "RAW264.7 [2]", "value": "Active"}, {"measurement": "Activity", "setting": "RAW264.7 [3]", "value": "Non-toxic"}, {"measurement": "Activity", "setting": "RAW264.7 [4]", "value": "Active"}, {"measurement": "Activity", "setting": "RAW264.7 [5]", "value": "Active"}, {"measurement": "Activity", "setting": "RAW264.7 [6]", "value": "Active"}, {"measurement": "Activity", "setting": "RAW264.7 [7]", "value": "Active"}, {"measurement": "Activity", "setting": "RAW264.7 [8]", "value": "Active"}, {"measurement": "Activity", "setting": "RAW264.7 [9]", "value": "Active"}]}
{"smiles": "COc1cc(-c2cc(=O)c3c(OC)c(OC)c(OC)c(OC)c3o2)ccc1O", "values": [{"measurement": "Activity", "setting": "RAW264.7 [1]", "value": "Active"}, {"measurement": "Activity", "setting": "RAW264.7 [2]", "value": "Active"}, {"measurement": "Activity", "setting": "RAW264.7 [3]", "value": "Non-toxic"}, {"measurement": "Activity", "setting": "RAW264.7 [4]", "value": "Active"}, {"measurement": "Activity", "setting": "RAW264.7 [5]", "value": "Active"}, {"measurement": "Activity", "setting": "RAW264.7 [6]", "value": "Active"}, {"measurement": "Activity", "setting": "RAW264.7 [7]", "value": "Active"}, {"measurement": "Activity", "setting": "RAW264.7 [8]", "value": "Active"}, {"measurement": "Activity", "setting": "RAW264.7 [9]", "value": "Active"}]}
{"smiles": "COc1ccc(-c2cc(=O)c3c(OC)c(OC)c(OC)c(OC)c3o2)cc1O", "values": [{"measurement": "Activity", "setting": "RAW264.7 [1]", "value": "Active"}, {"measurement": "Activity", "setting": "RAW264.7 [2]", "value": "Active"}, {"measurement": "Activity", "setting": "RAW264.7 [3]", "value": "Non-toxic"}, {"measurement": "Activity", "setting": "RAW264.7 [4]", "value": "inactive"}, {"measurement": "Activity", "setting": "RAW264.7 [5]", "value": "inactive"}, {"measurement": "Activity", "setting": "RAW264.7 [8]", "value": "inactive"}]}
{"smiles": "COc1ccc(-c2cc(=O)c3c(OC)c(OC)c(OC)c(OC)c3o2)cc1OC", "note": "[NOBILETIN]", "values": [{"measurement": "Activity", "setting": "RAW264.7 [1]", "value": "inactive"}, {"measurement": "Activity", "setting": "RAW264.7 [2]", "value": "inactive"}, {"measurement": "Activity", "setting": "RAW264.7 [3]", "value": "Non-toxic"}]}
